According to patent US20040006070A1, “Intraspinal continuous infusion of midazolam hydrochloride for the treatment of pain” (priority 2002, published 2004):
Where a name gives a salt, the structure may show the parent alone.

Assay: Bloodwork: complete blood count, electrolytes, extended blood chemistry
Format: in vivo, sheep
Conditions: for Total Bili: ref 0.14-0.32; for Creatinine: ref 1-2.7; for Albumin: ref 2.4-3; for K+: ref 3.9-5.4; for Phos: ref 5-7.3; for Total Prot: ref 6-7.9
Description: Indirect blood pressure, pulse recording, pain testing (mechanical stimulus device, cold and warm water baths see description in procedure) and weight were taken on days 1, 3, 7, 15, 22, 29, 36, and 43. Venous blood samples (15 ml drawn from the jugular vein with Vacutainer brand blood collection tubes) for complete blood count, electrolytes, and extended blood chemistry were drawn on days 1, 15, and 43 (mild procedure only light hand restraint necessary).

In the case of `Cc1ncc2n1-c1ccc(Cl)cc1C(c1ccccc1F)=NC2` [Midazolam, midazolam hydrochloride], the Glucose (sheep #91, 15 mg/day, Day 1) is reported as 77 mg/dL, the Hct (sheep #91, 15 mg/day, Day 1) is reported as 29.2% and the Hgb (sheep #91, 15 mg/day, Day 1) is reported as 9.84 g/dL. It also gave an MCH (sheep #91, 15 mg/day, Day 1) of 10.7 pg, an MCHC (sheep #91, 15 mg/day, Day 1) of 33.7 g/dL and an MCV (sheep #91, 15 mg/day, Day 1) of 31.8 fL. The “Na+” value (sheep #91, 15 mg/day, Day 1) was 149 mEq/l, the “Platlet Count” value (sheep #91, 15 mg/day, Day 1) was 996000 µL⁻¹ and the RBC (sheep #91, 15 mg/day, Day 1) was 9.18e+06 µL⁻¹. For the same molecule, the WBC (sheep #91, 15 mg/day, Day 1) was 7090 µL⁻¹, the “Total Bili” value (sheep #91, 15 mg/day, Day 1) was 0.1 mg/dL and the Creatinine (sheep #91, 15 mg/day, Day 1) was 1.6 mg/dL. The Albumin (sheep #91, 15 mg/day, Day 1) was 3.3 g/dL, the “K+” value (sheep #91, 15 mg/day, Day 1) was 4.9 mEq/l and the Phos (sheep #91, 15 mg/day, Day 1) was 6.2 mg/dL. For the same molecule, the “Total Prot” value (sheep #91, 15 mg/day, Day 1) was 6.1 g/dL, the ALT (sheep #91, 15 mg/day, Day 15) was 10 U/L and the AST (sheep #91, 15 mg/day, Day 15) was 50 U/L. For the same molecule, the “Alk Phos” value (sheep #91, 15 mg/day, Day 15) was 162 U/L, the BUN (sheep #91, 15 mg/day, Day 15) was 13 mg/dL and the CPK (sheep #91, 15 mg/day, Day 15) was 56 U/L. For the same molecule, the Cholesterol (sheep #91, 15 mg/day, Day 15) was 56 mg/dL, the “Differential Count: Eosin” value (sheep #91, 15 mg/day, Day 15) was 12% and the “Differential Count: Lymph” value (sheep #91, 15 mg/day, Day 15) was 44%. For the same molecule, the “Differential Count: Seg” value (sheep #91, 15 mg/day, Day 15) was 44%, the “Gamma GT” value (sheep #91, 15 mg/day, Day 15) was 60 U/L and the Glucose (sheep #91, 15 mg/day, Day 15) was 83 mg/dL. It also gave a Hct (sheep #91, 15 mg/day, Day 15) of 31.8%, a Hgb (sheep #91, 15 mg/day, Day 15) of 10.8 g/dL and an MCH (sheep #91, 15 mg/day, Day 15) of 10.8 pg. For the same molecule, the MCHC (sheep #91, 15 mg/day, Day 15) was 34.0 g/dL, the MCV (sheep #91, 15 mg/day, Day 15) was 31.8 fL and the “Na+” value (sheep #91, 15 mg/day, Day 15) was 148 mEq/l. For the same molecule, the “Platlet Count” value (sheep #91, 15 mg/day, Day 15) was 848000 µL⁻¹, the RBC (sheep #91, 15 mg/day, Day 15) was 1e+07 µL⁻¹ and the WBC (sheep #91, 15 mg/day, Day 15) was 5130 µL⁻¹. For the same molecule, the “Total Bili” value (sheep #91, 15 mg/day, Day 15) was 0.0 mg/dL, the Creatinine (sheep #91, 15 mg/day, Day 15) was 1.3 mg/dL and the Albumin (sheep #91, 15 mg/day, Day 15) was 3.3 g/dL. The “K+” value (sheep #91, 15 mg/day, Day 15) was 4.4 mEq/l, the Phos (sheep #91, 15 mg/day, Day 15) was 6.1 mg/dL and the “Total Prot” value (sheep #91, 15 mg/day, Day 15) was 6.2 g/dL. The ALT (sheep #91, 15 mg/day, Day 43) was 9 U/L, the AST (sheep #91, 15 mg/day, Day 43) was 63 U/L and the “Alk Phos” value (sheep #91, 15 mg/day, Day 43) was 174 U/L. For the same molecule, the BUN (sheep #91, 15 mg/day, Day 43) was 14 mg/dL, the CPK (sheep #91, 15 mg/day, Day 43) was 54 U/L and the Cholesterol (sheep #91, 15 mg/day, Day 43) was 66 mg/dL. The “Differential Count: Eosin” value (sheep #91, 15 mg/day, Day 43) was 5%, the “Differential Count: Lymph” value (sheep #91, 15 mg/day, Day 43) was 41% and the “Differential Count: Mono” value (sheep #91, 15 mg/day, Day 43) was 2%. For the same molecule, the “Differential Count: Seg” value (sheep #91, 15 mg/day, Day 43) was 52%, the “Gamma GT” value (sheep #91, 15 mg/day, Day 43) was 58 U/L and the Glucose (sheep #91, 15 mg/day, Day 43) was 81 mg/dL. The Hct (sheep #91, 15 mg/day, Day 43) was 36.3%, the Hgb (sheep #91, 15 mg/day, Day 43) was 12.2 g/dL and the MCH (sheep #91, 15 mg/day, Day 43) was 10.4 pg. For the same molecule, the MCHC (sheep #91, 15 mg/day, Day 43) was 33.6 g/dL, the MCV (sheep #91, 15 mg/day, Day 43) was 30.9 fL and the “Na+” value (sheep #91, 15 mg/day, Day 43) was 147 mEq/l. The “Platlet Count” value (sheep #91, 15 mg/day, Day 43) was 805000 µL⁻¹, the RBC (sheep #91, 15 mg/day, Day 43) was 1.18e+07 µL⁻¹ and the WBC (sheep #91, 15 mg/day, Day 43) was 5330 µL⁻¹. For the same molecule, the “Total Bili” value (sheep #91, 15 mg/day, Day 43) was 0.1 mg/dL, the Creatinine (sheep #91, 15 mg/day, Day 43) was 1.5 mg/dL and the Albumin (sheep #91, 15 mg/day, Day 43) was 3.6 g/dL. The “K+” value (sheep #91, 15 mg/day, Day 43) was 4.6 mEq/l, the Phos (sheep #91, 15 mg/day, Day 43) was 7.3 mg/dL and the “Total Prot” value (sheep #91, 15 mg/day, Day 43) was 6.4 g/dL. For the same molecule, the ALT (sheep #457, 15 mg/day, Day 1) was 10 U/L, the AST (sheep #457, 15 mg/day, Day 1) was 85 U/L and the “Alk Phos” value (sheep #457, 15 mg/day, Day 1) was 43 U/L. For the same molecule, the BUN (sheep #457, 15 mg/day, Day 1) was 14 mg/dL, the CPK (sheep #457, 15 mg/day, Day 1) was 122 U/L and the Cholesterol (sheep #457, 15 mg/day, Day 1) was 59 mg/dL. For the same molecule, the “Differential Count: Eosin” value (sheep #457, 15 mg/day, Day 1) was 1%, the “Differential Count: Lymph” value (sheep #457, 15 mg/day, Day 1) was 26% and the “Differential Count: Seg” value (sheep #457, 15 mg/day, Day 1) was 73%. The “Gamma GT” value (sheep #457, 15 mg/day, Day 1) was 59 U/L, the Glucose (sheep #457, 15 mg/day, Day 1) was 91 mg/dL and the Hct (sheep #457, 15 mg/day, Day 1) was 34.4%. For the same molecule, the Hgb (sheep #457, 15 mg/day, Day 1) was 10.5 g/dL, the MCH (sheep #457, 15 mg/day, Day 1) was 10.2 pg and the MCHC (sheep #457, 15 mg/day, Day 1) was 30.5 g/dL. The MCV (sheep #457, 15 mg/day, Day 1) was 33.4 fL, the “Na+” value (sheep #457, 15 mg/day, Day 1) was 147 mEq/l and the “Platlet Count” value (sheep #457, 15 mg/day, Day 1) was 276000 µL⁻¹. For the same molecule, the RBC (sheep #457, 15 mg/day, Day 1) was 8.68e+06 µL⁻¹, the WBC (sheep #457, 15 mg/day, Day 1) was 11900 µL⁻¹ and the “Total Bili” value (sheep #457, 15 mg/day, Day 1) was 0.1 mg/dL. The Creatinine (sheep #457, 15 mg/day, Day 1) was 1.1 mg/dL, the Albumin (sheep #457, 15 mg/day, Day 1) was 2.8 g/dL and the “K+” value (sheep #457, 15 mg/day, Day 1) was 4.4 mEq/l. For the same molecule, the Phos (sheep #457, 15 mg/day, Day 1) was 6.2 mg/dL, the “Total Prot” value (sheep #457, 15 mg/day, Day 1) was 5.0 g/dL and the ALT (sheep #457, 15 mg/day, Day 15) was 14 U/L. The AST (sheep #457, 15 mg/day, Day 15) was 55 U/L, the “Alk Phos” value (sheep #457, 15 mg/day, Day 15) was 93 U/L and the BUN (sheep #457, 15 mg/day, Day 15) was 20 mg/dL. The CPK (sheep #457, 15 mg/day, Day 15) was 73 U/L, the Cholesterol (sheep #457, 15 mg/day, Day 15) was 65 mg/dL and the “Differential Count: Lymph” value (sheep #457, 15 mg/day, Day 15) was 71%. The “Differential Count: Mono” value (sheep #457, 15 mg/day, Day 15) was 3%, the “Differential Count: Seg” value (sheep #457, 15 mg/day, Day 15) was 24% and the “Gamma GT” value (sheep #457, 15 mg/day, Day 15) was 72 U/L. It also gave a Glucose (sheep #457, 15 mg/day, Day 15) of 60 mg/dL, a Hct (sheep #457, 15 mg/day, Day 15) of 35.4% and a Hgb (sheep #457, 15 mg/day, Day 15) of 10.9 g/dL. It also gave an MCH (sheep #457, 15 mg/day, Day 15) of 10.6 pg, an MCHC (sheep #457, 15 mg/day, Day 15) of 30.8 g/dL and an MCV (sheep #457, 15 mg/day, Day 15) of 34.4 fL. For the same molecule, the “Na+” value (sheep #457, 15 mg/day, Day 15) was 150 mEq/l, the “Platlet Count” value (sheep #457, 15 mg/day, Day 15) was 45000 µL⁻¹ and the RBC (sheep #457, 15 mg/day, Day 15) was 8.72e+06 µL⁻¹. For the same molecule, the WBC (sheep #457, 15 mg/day, Day 15) was 15400 µL⁻¹, the “Total Bili” value (sheep #457, 15 mg/day, Day 15) was 0.1 mg/dL and the Creatinine (sheep #457, 15 mg/day, Day 15) was 1.1 mg/dL. For the same molecule, the Albumin (sheep #457, 15 mg/day, Day 15) was 3.3 g/dL, the “K+” value (sheep #457, 15 mg/day, Day 15) was 4.4 mEq/l and the Phos (sheep #457, 15 mg/day, Day 15) was 4.7 mg/dL. For the same molecule, the “Total Prot” value (sheep #457, 15 mg/day, Day 15) was 5.9 g/dL, the ALT (sheep #457, 15 mg/day, Day 43) was 12 U/L and the AST (sheep #457, 15 mg/day, Day 43) was 69 U/L. The “Alk Phos” value (sheep #457, 15 mg/day, Day 43) was 105 U/L, the BUN (sheep #457, 15 mg/day, Day 43) was 15 mg/dL and the CPK (sheep #457, 15 mg/day, Day 43) was 51 U/L. For the same molecule, the Cholesterol (sheep #457, 15 mg/day, Day 43) was 88 mg/dL, the “Differential Count: Eosin” value (sheep #457, 15 mg/day, Day 43) was 7% and the “Differential Count: Lymph” value (sheep #457, 15 mg/day, Day 43) was 68%. The “Differential Count: Mono” value (sheep #457, 15 mg/day, Day 43) was 2%, the “Differential Count: Seg” value (sheep #457, 15 mg/day, Day 43) was 23% and the “Gamma GT” value (sheep #457, 15 mg/day, Day 43) was 61 U/L. It also gave a Glucose (sheep #457, 15 mg/day, Day 43) of 67 mg/dL, a Hct (sheep #457, 15 mg/day, Day 43) of 40.4% and a Hgb (sheep #457, 15 mg/day, Day 43) of 12.6 g/dL. It also gave an MCH (sheep #457, 15 mg/day, Day 43) of 11.5 pg, an MCHC (sheep #457, 15 mg/day, Day 43) of 31.2 g/dL and an MCV (sheep #457, 15 mg/day, Day 43) of 33.7 fL. For the same molecule, the “Na+” value (sheep #457, 15 mg/day, Day 43) was 145 mEq/l, the RBC (sheep #457, 15 mg/day, Day 43) was 1.098e+07 µL⁻¹ and the WBC (sheep #457, 15 mg/day, Day 43) was 11200 µL⁻¹. The “Total Bili” value (sheep #457, 15 mg/day, Day 43) was 0.1 mg/dL, the Creatinine (sheep #457, 15 mg/day, Day 43) was 1.4 mg/dL and the Albumin (sheep #457, 15 mg/day, Day 43) was 3.3 g/dL. For the same molecule, the “K+” value (sheep #457, 15 mg/day, Day 43) was 4.9 mEq/l, the Phos (sheep #457, 15 mg/day, Day 43) was 5.9 mg/dL and the “Total Prot” value (sheep #457, 15 mg/day, Day 43) was 5.7 g/dL. The ALT (sheep #473, 3 mg/day, Day 1) was 22 U/L.
